Results: the supplement of paper PMC10307832

Legend:
Experiment in all cases: relative viability (nuclei count vs DMSO), 5 days (fraction); higher = more cells survive
Obatoclax + Pictilisib = compound: COC1=CC(c2cc3ccccc3[nH]2)=N/C1=C\c1[nH]c(C)cc1C [Obatoclax] + CS(=O)(=O)N1CCN(Cc2cc3nc(-c4cccc5[nH]ncc45)nc(N4CCOCC4)c3s2)CC1 [Pictilisib] (partner 1 µM)
Outline: (§1)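 Lung cancer cell lines were pin-tool dosed in 1536-well plates on the day after seeding, with either a lone drug or a fixed anchor-drug dose plus five library-drug doses (not always all listed) in √10 steps. Nuclei were counted on 4× images after 5 days. Relative viability is the ratio of treated-well to vehicle-well nuclei counts, with each value a median of duplicate plates.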

Bortezomib + OSI-027 = compound: CC(C)C[C@H](NC(=O)[C@H](Cc1ccccc1)NC(=O)c1cnccn1)B(O)O [Bortezomib] + COc1cccc2cc(-c3nc([C@H]4CC[C@H](C(=O)O)CC4)n4ncnc(N)c34)[nH]c12 [OSI-027] (partner 0.5 µM)
Outline: as §1

[1] = compound: CC1=CC(=NN1)NC2=CC(=NC(=N2)/C=C/C3=CC=CC=C3)N4CCN(CC4)C + CS(=O)(=O)CCNCc1ccc(-c2ccc3ncnc(Nc4ccc(OCc5cccc(F)c5)c(Cl)c4)c3c2)o1 [Lapatinib] (partner 2 µM)
Outline: as §1

Bortezomib + Vorinostat = compound: CC(C)C[C@H](NC(=O)[C@H](Cc1ccccc1)NC(=O)c1cnccn1)B(O)O [Bortezomib] + O=C(CCCCCCC(=O)Nc1ccccc1)NO [Vorinostat] (partner 1 µM)
Outline: as §1

Cell Line: NCI-H1650
- relative viability (Obatoclax + Pictilisib; first compound 0.01 µM): 0.572
- relative viability (Obatoclax + Pictilisib; first compound 0.03162 µM): 0.749
- relative viability (Obatoclax + Pictilisib; first compound 0.1 µM): 0.571
- relative viability (Obatoclax + Pictilisib; first compound 0.3162 µM): 0.412
- relative viability (Obatoclax + Pictilisib; first compound 1 µM): 0.315
- relative viability (Bortezomib + OSI-027; first compound 0.0002 µM): 0.657
- relative viability (Bortezomib + OSI-027; first compound 0.000632 µM): 0.383
- relative viability (Bortezomib + OSI-027; first compound 0.002 µM): 0.205
- relative viability (Bortezomib + OSI-027; first compound 0.006325 µM): 0.132
- relative viability (Bortezomib + OSI-027; first compound 0.02 µM): 0.133
- relative viability ([1]; first compound 0.08 µM): 0.775
- relative viability ([1]; first compound 0.253 µM): 0.739
- relative viability ([1]; first compound 0.8 µM): 0.946
- relative viability ([1]; first compound 2.53 µM): 0.109
- relative viability ([1]; first compound 8 µM): 0.0756
- relative viability (Bortezomib + Vorinostat; first compound 0.0002 µM): 0.575
- relative viability (Bortezomib + Vorinostat; first compound 0.000632 µM): 0.58
- relative viability (Bortezomib + Vorinostat; first compound 0.002 µM): 0.151
- relative viability (Bortezomib + Vorinostat; first compound 0.006325 µM): 0.139
- relative viability (Bortezomib + Vorinostat; first compound 0.02 µM): 0.155

Cell Line: NCI-H1755
- relative viability (Obatoclax + Pictilisib; first compound 0.01 µM): 0.475
- relative viability (Obatoclax + Pictilisib; first compound 0.03162 µM): 0.383
- relative viability (Obatoclax + Pictilisib; first compound 0.1 µM): 0.386
- relative viability (Obatoclax + Pictilisib; first compound 0.3162 µM): 0.357
- relative viability (Obatoclax + Pictilisib; first compound 1 µM): 0.269
- relative viability (Bortezomib + OSI-027; first compound 0.0002 µM): 0.706
- relative viability (Bortezomib + OSI-027; first compound 0.000632 µM): 0.568
- relative viability (Bortezomib + OSI-027; first compound 0.002 µM): 0.68
- relative viability (Bortezomib + OSI-027; first compound 0.006325 µM): 0.27
- relative viability (Bortezomib + OSI-027; first compound 0.02 µM): 0.228
- relative viability ([1]; first compound 0.08 µM): 1.06
- relative viability ([1]; first compound 0.253 µM): 1.12
- relative viability ([1]; first compound 0.8 µM): 1.01
- relative viability ([1]; first compound 2.53 µM): 0.535
- relative viability ([1]; first compound 8 µM): 0.143
- relative viability (Bortezomib + Vorinostat; first compound 0.0002 µM): 0.813
- relative viability (Bortezomib + Vorinostat; first compound 0.000632 µM): 0.644
- relative viability (Bortezomib + Vorinostat; first compound 0.002 µM): 0.748
- relative viability (Bortezomib + Vorinostat; first compound 0.006325 µM): 0.245
- relative viability (Bortezomib + Vorinostat; first compound 0.02 µM): 0.208

Cell Line: HCC-15
- relative viability (Obatoclax + Pictilisib; first compound 0.01 µM): 0.737
- relative viability (Obatoclax + Pictilisib; first compound 0.03162 µM): 0.658
- relative viability (Obatoclax + Pictilisib; first compound 0.1 µM): 0.744
- relative viability (Obatoclax + Pictilisib; first compound 0.3162 µM): 0.686
- relative viability (Obatoclax + Pictilisib; first compound 1 µM): 0.471
- relative viability (Bortezomib + OSI-027; first compound 0.0002 µM): 0.677
- relative viability (Bortezomib + OSI-027; first compound 0.000632 µM): 0.707
- relative viability (Bortezomib + OSI-027; first compound 0.002 µM): 0.667
- relative viability (Bortezomib + OSI-027; first compound 0.006325 µM): 0.0893
- relative viability (Bortezomib + OSI-027; first compound 0.02 µM): 0.0735
- relative viability ([1]; first compound 0.08 µM): 0.867
- relative viability ([1]; first compound 0.253 µM): 0.856
- relative viability ([1]; first compound 0.8 µM): 0.835
- relative viability ([1]; first compound 2.53 µM): 0.319
- relative viability ([1]; first compound 8 µM): 0.167
- relative viability (Bortezomib + Vorinostat; first compound 0.0002 µM): 0.864
- relative viability (Bortezomib + Vorinostat; first compound 0.000632 µM): 0.892
- relative viability (Bortezomib + Vorinostat; first compound 0.002 µM): 0.729
- relative viability (Bortezomib + Vorinostat; first compound 0.006325 µM): 0.107
- relative viability (Bortezomib + Vorinostat; first compound 0.02 µM): 0.094

Cell Line: EMC-BAC-2
- relative viability (Obatoclax + Pictilisib; first compound 0.01 µM): 0.539
- relative viability (Obatoclax + Pictilisib; first compound 0.03162 µM): 0.559
- relative viability (Obatoclax + Pictilisib; first compound 0.1 µM): 0.521
- relative viability (Obatoclax + Pictilisib; first compound 0.3162 µM): 0.522
- relative viability (Obatoclax + Pictilisib; first compound 1 µM): 0.51
- relative viability (Bortezomib + OSI-027; first compound 0.0002 µM): 0.359
- relative viability (Bortezomib + OSI-027; first compound 0.000632 µM): 0.296
- relative viability (Bortezomib + OSI-027; first compound 0.002 µM): 0.321
- relative viability (Bortezomib + OSI-027; first compound 0.006325 µM): 0.206
- relative viability (Bortezomib + OSI-027; first compound 0.02 µM): 0.181
- relative viability ([1]; first compound 0.08 µM): 0.905
- relative viability ([1]; first compound 0.253 µM): 0.923
- relative viability ([1]; first compound 0.8 µM): 0.811
- relative viability ([1]; first compound 2.53 µM): 0.689
- relative viability ([1]; first compound 8 µM): 0.136
- relative viability (Bortezomib + Vorinostat; first compound 0.0002 µM): 0.402
- relative viability (Bortezomib + Vorinostat; first compound 0.000632 µM): 0.467
- relative viability (Bortezomib + Vorinostat; first compound 0.002 µM): 0.409
- relative viability (Bortezomib + Vorinostat; first compound 0.006325 µM): 0.155
- relative viability (Bortezomib + Vorinostat; first compound 0.02 µM): 0.143
